Measured values from patent publication US20210330611A1, “THERAPY FOR NEUROLOGICAL DISEASES/DISORDERS” (priority 2020, published 2021).
Where a name gives a salt, the structure may show the parent alone. Read-outs that look alike come from different tables or passages of the source.

Assays:
[1] = test system: fibrin-induced microglia activation; assay: Image-based assay of fibrin-induced microglia activation (HTS and dose response); type: cell-based, rat; settings: for inhibition at 10 µM: Rattus norvegicus, Microglia, read-out: Fibrin % inhibition
[2] = test system: LPS-induced microglia activation; assay: Image-based assay of LPS-induced microglia activation (HTS and dose response); type: cell-based, rat; settings: for inhibition at 10 µM: Rattus norvegicus, Microglia, read-out: LPS % inhibition
[3] = test system: fibrin- and LPS-induced microglia activation; assay: cells; type: cell-based, rat
[4] = test system: primary rat microglia;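 on Fibrin % cell toxicity: share of dead cells sized under 150 µm2 at 10 µM in fibrin-stimulated microglia HTS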
[5] = test system: primary rat microglia; remark: listed apart in the source;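 on Fibrin % cell toxicity: share of dead cells sized under 150 µm2 at 10 µM in fibrin-stimulated microglia HTS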
[6] = primary microglia HTS, fibrin stimulation, compounds at 10 μM
[7] = primary microglia HTS, LPS stimulation, compounds at 10 μM
[8] = quadrant by fibrin and LPS inhibition, HTS at 10 μM
[9] = primary HTS, 10 μM, fibrin-stimulated primary microglia
[10] = primary HTS, 10 μM, LPS-stimulated primary microglia
[11] = classification by fibrin and LPS inhibition, HTS at 10 μM
[12] = primary microglia HTS, 10 μM, fibrin-stimulated, cell size >800 μm^2 as marker of activation
[13] = primary microglia HTS, 10 μM, LPS-stimulated, cell size >800 μm^2 as marker of activation
[14] = HTS of 1907 compounds, quadrant by fibrin and LPS inhibition
[15] = primary microglia HTS, fibrin stimulation, activation = cell size >800 μm2
[16] = 48 h, primary microglia HTS, LPS stimulation, activation = cell size >800 μm2
[17] = quadrant by fibrin and LPS inhibition in HTS of 1907 compounds
[18] = primary microglia HTS, fibrin stimulation, increased cell size (>800 μm^2) as marker of activation
[19] = 48 h, primary microglia HTS, LPS stimulation, increased cell size (>800 μm^2) as marker of activation

Structure (SMILES)	inhibition at 10 µM [1] [%]	Quadrant (FIG. 5b) [3]	Fibrin % cell toxicity ([4]; rat) [%]	LPS % cell toxicity ([5]; rat) [%]	further results
CN/C(=N/CCSCc1nc[nH]c1C)NC#N [Cimetidine]	-1	Q4	0	1	inhibition at 10 µM [2]: 22%
CCN(CC)CCNC(=O)c1c(C)[nH]c(/C=C2\C(=O)Nc3ccc(F)cc32)c1C [Sunitinib]	–	–	75	27	inhibition at 10 µM [1, 6]: 106%; inhibition at 10 µM [2, 7]: 101%; Quadrant (FIG. 5b) [3, 8]: Q2
C=C(c1ccc(C(=O)O)cc1)c1cc2c(cc1C)C(C)(C)CCC2(C)C [Bexarotene]	–	–	1	1	inhibition at 10 µM [1, 9]: -3%; inhibition at 10 µM [2, 10]: 10%; Quadrant (FIG. 5b) ([3]; primary HTS, 10 μM): Q4
COP(=O)(OC)OC=C(Cl)Cl [Dichlorvos]	–	–	1	1	inhibition at 10 µM [1, 6]: -1%; inhibition at 10 µM [2, 7]: 19%; Quadrant (FIG. 5b) [3, 11]: Q4
NC[C@H]1CC[C@H](C(=O)O)CC1 [Tranexamic Acid]	-4	Q4	1	0	inhibition at 10 µM [2]: 13%
CC1CCC(C(C)C)C(O)C1 (centres unmarked) [Menthol]	-20	Q4	1	0	inhibition at 10 µM ([2]; 48 h): 0%
Cn1c(=O)c2[nH]cnc2n(C)c1=O [Aminophylline, Theophylline]	–	Q4	–	–	Fibrin % inhibition ([1]; 10 µM): 35%; LPS % inhibition ([2]; 10 µM): 25%; Fibrin % cell toxicity [4]: 1%; LPS % cell toxicity [5]: 0%
Clc1ccc2nsnc2c1NC1=NCCN1 [Tizanidine]	2	Q4	1	1	inhibition at 10 µM [2]: 2%
Cc1cc(C)nc(NS(=O)(=O)c2ccc(N)cc2)n1 [Sulfamethazine]	–	–	0	0	inhibition at 10 µM [1, 12]: -9%; inhibition at 10 µM [2, 13]: 14%; Quadrant (FIG. 5b) [3, 14]: Q4
Oc1ccc2c3c1O[C@H]1[C@@H](O)CC[C@@]4(O)[C@@H](C2)N(CC2CCC2)CC[C@]314 [Nalbuphine Hydrochloride]	–	Q4	1	0	Fibrin % inhibition [1]: −11%; LPS % inhibition [2]: 15%
COc1ccc2c(c1)c(CC(=O)O)c(C)n2C(=O)c1ccc(Cl)cc1 [Indomethacin]	–	–	0	0	inhibition at 10 µM [1, 15]: -56%; inhibition at 10 µM [2, 16]: 13%; Quadrant (FIG. 5b) [3, 17]: Q4
Oc1c(Cl)cc(Cl)cc1Sc1cc(Cl)cc(Cl)c1O [Bithionol]	–	–	1	0	inhibition at 10 µM [1, 9]: 11%; inhibition at 10 µM [2, 10]: 14%; Quadrant (FIG. 5b) ([3]; primary HTS, 10 μM): Q4
N[C@@H](Cc1ccc(N(CCCl)CCCl)cc1)C(=O)O [Melphalan]	–	–	0	0	inhibition at 10 µM [1, 18]: 28%; inhibition at 10 µM [2, 19]: 3%; Quadrant (FIG. 5b) [3, 17]: Q4
O=C(O)c1cc(/N=N/c2ccc(S(=O)(=O)Nc3ccccn3)cc2)ccc1O [Sulfasalazine]	–	–	0	0	inhibition at 10 µM [1, 12]: -29%; inhibition at 10 µM [2, 13]: 13%; Quadrant (FIG. 5b) [3, 14]: Q4
Nc1ccn([C@@H]2O[C@H](CO)[C@@H](O)[C@@H]2O)c(=O)n1 [Cytarabine]	–	–	0	0	inhibition at 10 µM [1, 6]: -19%; inhibition at 10 µM [2, 7]: 14%; Quadrant (FIG. 5b) [3, 11]: Q4
CN(C)[C@@H]1C(O)=C(C(N)=O)C(=O)[C@@]2(O)C(O)=C3C(=O)c4c(O)cccc4[C@@](C)(O)[C@H]3[C@H](O)[C@@H]12 [Oxytetracycline]	–	–	1	0	inhibition at 10 µM [1, 18]: 0%; inhibition at 10 µM [2, 19]: 10%; Quadrant (FIG. 5b) [3, 17]: Q4
O=C(O)c1cc(-c2ccc(F)cc2F)ccc1O [Diflunisal]	–	–	0	0	inhibition at 10 µM [1, 6]: -62%; inhibition at 10 µM [2, 7]: 15%; Quadrant (FIG. 5b) [3, 11]: Q4

Structure (SMILES)	inhibition at 10 µM [1] [%]	Quadrant (FIG. 5b) [3]	Fibrin % cell toxicity ([4]; rat) [%]	LPS % cell toxicity ([5]; rat) [%]	further results
C=C1CC[C@H](O)C/C1=C/C=C1\CCC[C@]2(C)[C@@H]([C@H](C)/C=C/[C@H](C)C(C)C)CC[C@@H]12 [Ergocalciferol]	–	–	1	0	inhibition at 10 µM [1, 6]: -6%; inhibition at 10 µM [2, 7]: 7%; Quadrant (FIG. 5b) [3, 11]: Q4
O=C(Nc1ccc(C(=O)O)c(O)c1)c1ccccc1 [Benzoylpas]	107	Q2	4	2	inhibition at 10 µM ([2]; 48 h): 87%
COc1cc(Cc2cnc(N)nc2N)cc(OC)c1OC [Trimethoprim]	-26	Q4	0	0	inhibition at 10 µM [2]: 17%
C=CCc1ccccc1OCC(O)CNC(C)C (centres unmarked) [Alprenolol Hydrochloride, Alprenolol]	–	–	–	–	Fibrin % inhibition [1, 6]: 1%; LPS % inhibition [2, 7]: 13%; Quadrant (FIG. 5b) [3, 8]: Q4; Fibrin % cell toxicity [4]: 0%; LPS % cell toxicity [5]: 1%
CO/N=C(\C(=O)N[C@@H]1C(=O)N2C(C(=O)O)=C(COC(N)=O)CS[C@H]12)c1ccco1 [Cefuroxime Sodium]	–	–	1	1	Fibrin % inhibition [1, 9]: −12%; LPS % inhibition [2, 10]: 19%; Quadrant (FIG. 5b) ([3]; primary HTS, 10 μM): Q4
O=C(NCC(O)CO)c1c(I)c(C(=O)NCC(O)CO)c(I)c(N(CCO)C(=O)CO)c1I (centres unmarked) [Ioversol]	-1	Q4	1	1	inhibition at 10 µM ([2]; 48 h): 18%
N[C@@H]1C[C@H]1c1ccccc1.N[C@H]1C[C@@H]1c1ccccc1.O=S(=O)(O)O [Tranylcypromine Sulfate]	–	Q4	–	–	Fibrin % inhibition ([1]; 10 µM): 3%; LPS % inhibition ([2]; 10 µM): 17%; Fibrin % cell toxicity [4]: 0%; LPS % cell toxicity [5]: 0%
O=c1cccc2n1C[C@@H]1CNC[C@H]2C1 [Cytisine]	23	Q4	1	1	inhibition at 10 µM [2]: 16%
OC(CCN1CCCCC1)(c1ccccc1)C1CCCCC1 (centres unmarked) [Trihexyphenidyl]	5	Q4	1	1	inhibition at 10 µM [2]: 14%
CCN(CC)CCOCCOC(=O)C1(c2ccccc2)CCCC1 [Carbetapentane Citrate]	–	–	1	0	inhibition at 10 µM [1, 9]: -13%; inhibition at 10 µM [2, 10]: 7%; Quadrant (FIG. 5b) ([3]; primary HTS, 10 μM): Q4
CC(=O)C1C(=O)C=C(C)OC1=O (centres unmarked) [Dehydroacetic Acid]	–	–	0	0	inhibition at 10 µM [1, 6]: -36%; inhibition at 10 µM [2, 7]: 2%; Quadrant (FIG. 5b) [3, 11]: Q4
COc1c(N2C[C@@H]3CCCN[C@@H]3C2)c(F)cc2c(=O)c(C(=O)O)cn(C3CC3)c12 [Moxifloxacin Hydrochloride]	–	–	1	0	inhibition at 10 µM [1, 18]: 7%; inhibition at 10 µM [2, 19]: 14%; Quadrant (FIG. 5b) [3, 17]: Q4
O=c1ccc2ccccc2o1 [2H-1-BENZOPYRAN-2-ONE]	–	Q4	–	–	Fibrin % inhibition ([1]; 10 µM): −35%; LPS % inhibition ([2]; 10 µM): 13%; Fibrin % cell toxicity [4]: 0%; LPS % cell toxicity [5]: 0%
CC(=O)Nc1ccccc1 [Acetanilide]	-31	Q4	0	0	inhibition at 10 µM [2]: 9%
Cn1cnc([N+](=O)[O-])c1Sc1ncnc2nc[nH]c12 [Azathioprine]	-14	Q4	0	0	inhibition at 10 µM [2]: 16%
N#Cc1ccc(C(c2ccc(C#N)cc2)n2cncn2)cc1 [Letrozole]	–	–	1	0	inhibition at 10 µM [1, 15]: 15%; inhibition at 10 µM [2, 16]: 16%; Quadrant (FIG. 5b) [3, 17]: Q4
CN(C)c1cnccn1.O=S(=O)(O)O [Ampyzine Sulfate]	–	Q4	–	–	Fibrin % inhibition ([1]; 10 µM): −18%; LPS % inhibition ([2]; 10 µM): 11%; Fibrin % cell toxicity [4]: 0%; LPS % cell toxicity [5]: 1%
